Assay results published in patent US9399666B2, “Inhibiting interaction between the HIF-1ALPHA and p300/CBP with hydrogen bond surrogate-based helices” (New York University, priority 2008, dated 2016).
One block for each molecule: values may come before it. Peptide text beside a SMILES is read from it.

Key:
MDA-MB-231-HRE-Luc cells = format: cell-based
Experimental: MDA-MB-231-HRE-Luc cells were maintained in high glucose Dulbecco's Modified Eagle's Medium (“DMEM”) supplemented with 10% fetal bovine serum and 0.4 g/L Geneticin (G418 sulfate, RPI Corporation). Cells were plated in 24-well dishes (BD Falcon) at a density of […] using 1 mL of a 6.5×10^4 cell/mL suspension. […] Cells were incubated for 6 hours at 37° C. in a humidified atmosphere with 5% CO2. Hypoxia was induced by adding desferoxamine mesylate (DFO, Sigma) to a final concentration of 300 μM, and cells were incubated for an additional 18 hours. Whole cell lysates were isolated by washing the cells twice with ice cold PBS and then adding 150 μL of Cell Culture Lysis Reagent (“CCLR,” Promega). Lysate was collected, centrifuged at 13,000 rpm at 4° C., aliquoted, and stored at −80° C. Luciferase assays were conducted according to the manufacturer's instructions (Promega) using a Turner TD-20e Luminometer. Relative light intensity measurements were normalized by performing a Bradford assay to determine the protein content of the lysate used in the luciferase assay. Briefly, 50 μL of cell lysate/luciferase assay reagent mix was added to 200 μL of Bradford reagent and 750 μL of Millipore water in a 1.5 mL cuvette. Protein standards were created in the range of 1 μg/mL to 10 μg/mL with the appropriate amount of a 1 mg/mL BSA solution. Absorbance was measured at 595 nm using a DU-800 spectrophotometer. The experiments were carried out in triplicate with the error bars calculated as standard error of the mean.

[1] = system: VEGF transcription in HeLa cells; experiment: VEGF gene expression by real-time qRT-PCR; format: cell-based; settings: FIG. 7
Source text: Real-time qRT-PCR was used to determine the effect of HBS helices on the level of expression of VEGF and GLUT1 genes in HeLa and MCF-7 cells, both under normoxic and hypoxic conditions. For VEGF analysis, the forward primer 5′AGGCCAGCACATAGGAGAGA-3′ (SEQ ID NO: 105) and reverse primer 5′TTTCCCTTTCCTCGAACTGA-3′ (SEQ ID NO:106) were used to amplify a 104-bp fragment from the […] of the gene. For GLUT1 (SLC2A1) analysis, the following sequences were utilized to yield a product of 179 bp: forward sequence 5′-TAGAAACATGGTTTTGAAATGC-3′ (SEQ ID NO:107), reverse sequence 5′-GGTAACAGGGATCAAACAGATT-3′ (SEQ ID NO:108). The levels of expression of β-glucuronidase were used as endogenous controls, since they remain unchanged under experimental conditions. The forward primer 5′-CTCATTTGGAATTTTGCCGATT-3′ (SEQ ID NO:109) and reverse primer 5′-CCGAGTGAAGATCCCCTTTTTA-3′ (SEQ ID NO:110) were used for this gene. Temperature cycling and detection of the SYBR green emission were performed with an ABI 7300 real-time PCR instrument. Data were analyzed with ABI Sequence Detection System, version 1.2. Statistical analysis was performed with the data from six independent experiments. The experiment was performed with Applied Biosystems SYBR Green RT-PCR master mix.

[2] = Percent helicity by circular dichroism spectroscopy; format: physicochemical
Source text: Helix αA of HIF-1α C-TAD, shown in FIG. 1A and FIG. 1C, is critical for the interaction between the CH1 domain and HIF-1α, because mutation of its residues or hydroxylation of Asn803 is known to disrupt this complex and inhibit HIF-1α mediated transcription (Freedman et al., “Structural Basis for Recruitment of CBP/p300 by Hypoxia-inducible Factor-1α,” Proc. Nat'l Acad. Sci. USA 99:5367-72 (2002); Dames et al., “Structural Basis for Hif-1α/CBP Recognition in the Cellular Hypoxic Response,” Proc. Nat'1 Acad. Sci. USA 99:5271-6 (2002). Development of HBS helices as potential inhibitors of VEGF transcription was begun by mimicking the aA helix region of HIF-1. This helix consists of eight residues, […] (SEQ ID NO: 111), and features three residues, Asp-Cys-Glu, critical for binding with p300/CBP. Several linear peptides and their HBS α-helix analogs were designed to gauge the potential of these molecules to inhibit VEGF transcription in cell culture. Each unconstrained peptide and HBS helix was synthesized using the procedures described in (Dimartino et al., “Solid-phase Synthesis of Hydrogen-bond Surrogate-derived α-Helices,” Org. Lett. 7:2389-92 (2005); Chapman & Arora, “Optimized Synthesis of Hydrogen-bond Surrogate Helices: Surprising Effects of Microwave Heating on the Activity of Grubbs Catalysts,” Org. Lett. 8:5825-8 (2006)). The percent helicity of each peptide was determined using circular dichroism spectroscopy in 10 mM phosphate buffered saline as described in (Wang et al., “Evaluation of Biologically Relevant Short α-Helices Stabilized by a Main-chain Hydrogen-bond Surrogate,” J. Am. Chem. Soc. 128:9248-56 (2006)). The affinity of each peptide for p300 was measured by isothermal titration calorimetry analysis (Wiseman et al., “Rapid Measurement of Binding Constants and Heats of Binding Using a New Titration calorimeter,” Anal. Biochem. 179:131-7 (1989); Freire et al., “Isothermal Titration calorimetry,” Anal. Chem. 62:A950-A959 (1990); Chervenak & Toone, “Calorimetric Analysis of the Binding of Lectins with Overlapping Carhohydrate-binding Ligand Specificities,” Biochemistry 34:5685-95 (1995); Aki et al., “Competitive Binding of Drugs to the Multiple Binding Sites on Human Serum Albumin. A calorimetric Study,” J Thermal Anal. calorim. […] The ability of each peptide to downregulate VEGF transcription in cell culture was evaluated by […] quantitative RT-PCR, as described above. The cytotoxicity of each peptide was determined by monitoring cellular growth and population doubling in the presence of individual peptides at 1μM concentration.

circular dichroism = settings: 10 mM phosphate buffered saline (par. 0128, each peptide; pH given only for 22 and 25, Fig 6B), pH 7.4, ns °C
p300 [3] = target: p300 (Homo sapiens, UniProt Q09472); experiment: Affinity for p300 by isothermal titration calorimetry; format: binding; settings: isothermal titration calorimetry, p300; read-out: Kd (ITC)
Chain of p300 (Homo sapiens, UniProt Q09472) (Q09472 whole entry, the tested form may be a part): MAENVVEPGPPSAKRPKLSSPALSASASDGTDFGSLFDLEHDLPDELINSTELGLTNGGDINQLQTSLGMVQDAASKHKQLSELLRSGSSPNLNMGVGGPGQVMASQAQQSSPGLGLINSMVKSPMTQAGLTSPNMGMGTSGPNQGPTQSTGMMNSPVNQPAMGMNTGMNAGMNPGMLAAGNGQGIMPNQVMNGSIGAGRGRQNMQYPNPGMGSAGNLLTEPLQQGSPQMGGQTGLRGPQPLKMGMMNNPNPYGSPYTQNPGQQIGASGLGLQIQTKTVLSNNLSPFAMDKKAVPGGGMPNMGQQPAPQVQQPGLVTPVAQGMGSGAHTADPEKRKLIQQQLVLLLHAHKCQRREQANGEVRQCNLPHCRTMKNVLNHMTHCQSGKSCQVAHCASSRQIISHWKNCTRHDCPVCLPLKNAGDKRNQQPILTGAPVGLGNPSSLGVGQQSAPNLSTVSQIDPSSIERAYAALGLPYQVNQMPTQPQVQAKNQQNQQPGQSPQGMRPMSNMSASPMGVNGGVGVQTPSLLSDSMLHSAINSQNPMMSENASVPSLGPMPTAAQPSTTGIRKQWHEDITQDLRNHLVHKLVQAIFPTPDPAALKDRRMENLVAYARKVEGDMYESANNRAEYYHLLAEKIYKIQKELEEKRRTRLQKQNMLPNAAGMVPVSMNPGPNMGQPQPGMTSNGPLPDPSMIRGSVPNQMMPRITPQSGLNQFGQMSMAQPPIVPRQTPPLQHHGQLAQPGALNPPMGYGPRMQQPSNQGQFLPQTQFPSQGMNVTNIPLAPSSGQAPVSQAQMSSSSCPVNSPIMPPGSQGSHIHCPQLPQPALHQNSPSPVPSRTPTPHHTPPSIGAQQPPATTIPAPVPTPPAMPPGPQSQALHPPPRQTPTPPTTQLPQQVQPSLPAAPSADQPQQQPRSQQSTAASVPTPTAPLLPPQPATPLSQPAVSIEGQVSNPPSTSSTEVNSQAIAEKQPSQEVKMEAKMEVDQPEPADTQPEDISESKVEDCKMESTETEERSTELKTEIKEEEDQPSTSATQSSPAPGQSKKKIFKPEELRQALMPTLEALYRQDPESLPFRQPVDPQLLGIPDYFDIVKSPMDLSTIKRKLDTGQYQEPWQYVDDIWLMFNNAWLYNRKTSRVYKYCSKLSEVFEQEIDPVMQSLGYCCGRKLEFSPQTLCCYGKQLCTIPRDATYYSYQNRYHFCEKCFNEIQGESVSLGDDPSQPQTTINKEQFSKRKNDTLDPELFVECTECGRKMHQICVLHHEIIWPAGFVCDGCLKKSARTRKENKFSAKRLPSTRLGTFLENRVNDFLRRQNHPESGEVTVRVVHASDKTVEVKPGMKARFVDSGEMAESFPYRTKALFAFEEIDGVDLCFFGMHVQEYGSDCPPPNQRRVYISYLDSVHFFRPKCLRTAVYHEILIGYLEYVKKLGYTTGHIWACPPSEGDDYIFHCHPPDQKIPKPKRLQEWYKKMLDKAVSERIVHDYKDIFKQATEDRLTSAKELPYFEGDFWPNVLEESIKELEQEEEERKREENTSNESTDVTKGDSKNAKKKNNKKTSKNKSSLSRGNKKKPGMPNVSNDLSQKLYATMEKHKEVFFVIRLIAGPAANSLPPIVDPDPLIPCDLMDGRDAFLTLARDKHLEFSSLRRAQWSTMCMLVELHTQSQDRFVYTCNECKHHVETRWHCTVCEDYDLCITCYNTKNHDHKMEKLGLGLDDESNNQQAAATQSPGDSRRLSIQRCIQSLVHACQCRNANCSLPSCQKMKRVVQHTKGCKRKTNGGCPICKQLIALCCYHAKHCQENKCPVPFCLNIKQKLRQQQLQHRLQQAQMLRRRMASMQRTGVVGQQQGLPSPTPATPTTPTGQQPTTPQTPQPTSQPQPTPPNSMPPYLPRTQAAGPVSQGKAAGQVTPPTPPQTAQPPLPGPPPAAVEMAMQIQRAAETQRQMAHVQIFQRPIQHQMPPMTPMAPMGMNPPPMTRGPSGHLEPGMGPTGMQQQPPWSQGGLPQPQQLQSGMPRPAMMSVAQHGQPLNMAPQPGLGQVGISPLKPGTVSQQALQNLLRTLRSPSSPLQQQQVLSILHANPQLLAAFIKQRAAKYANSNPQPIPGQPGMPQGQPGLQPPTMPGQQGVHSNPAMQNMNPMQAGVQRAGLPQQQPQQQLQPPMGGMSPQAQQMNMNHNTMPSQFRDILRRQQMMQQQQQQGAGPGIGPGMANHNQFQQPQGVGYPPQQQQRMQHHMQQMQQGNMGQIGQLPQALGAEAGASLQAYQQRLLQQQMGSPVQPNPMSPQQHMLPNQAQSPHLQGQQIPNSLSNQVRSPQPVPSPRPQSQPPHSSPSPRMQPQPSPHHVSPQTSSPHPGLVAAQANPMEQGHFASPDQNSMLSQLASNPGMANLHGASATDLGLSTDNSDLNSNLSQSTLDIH
Source text: Helix αA of HIF-1α C-TAD, shown in FIG. 1A and FIG. 1C, is critical for the interaction between the CH1 domain and HIF-1α, because mutation of its residues or hydroxylation of Asn803 is known to disrupt this complex and inhibit HIF-1α mediated transcription (Freedman et al., “Structural Basis for Recruitment of CBP/p300 by Hypoxia-inducible Factor-1α,” Proc. Nat'l Acad. Sci. USA 99:5367-72 (2002); Dames et al., “Structural Basis for Hif-1α/CBP Recognition in the Cellular Hypoxic Response,” Proc. Nat'1 Acad. Sci. USA 99:5271-6 (2002). Development of HBS helices as potential inhibitors of VEGF transcription was begun by mimicking the aA helix region of HIF-1. This helix consists of eight residues, […] (SEQ ID NO: 111), and features three residues, Asp-Cys-Glu, critical for binding with p300/CBP. Several linear peptides and their HBS α-helix analogs were designed to gauge the potential of these molecules to inhibit VEGF transcription in cell culture. Each unconstrained peptide and HBS helix was synthesized using the procedures described in (Dimartino et al., “Solid-phase Synthesis of Hydrogen-bond Surrogate-derived α-Helices,” Org. Lett. 7:2389-92 (2005); Chapman & Arora, “Optimized Synthesis of Hydrogen-bond Surrogate Helices: Surprising Effects of Microwave Heating on the Activity of Grubbs Catalysts,” Org. Lett. 8:5825-8 (2006)). The percent helicity of each peptide was determined using circular dichroism spectroscopy in 10 mM phosphate buffered saline as described in (Wang et al., “Evaluation of Biologically Relevant Short α-Helices Stabilized by a Main-chain Hydrogen-bond Surrogate,” J. Am. Chem. Soc. 128:9248-56 (2006)). The affinity of each peptide for p300 was measured by isothermal titration calorimetry analysis (Wiseman et al., “Rapid Measurement of Binding Constants and Heats of Binding Using a New Titration calorimeter,” Anal. Biochem. 179:131-7 (1989); Freire et al., “Isothermal Titration calorimetry,” Anal. Chem. 62:A950-A959 (1990); Chervenak & Toone, “Calorimetric Analysis of the Binding of Lectins with Overlapping Carhohydrate-binding Ligand Specificities,” Biochemistry 34:5685-95 (1995); Aki et al., “Competitive Binding of Drugs to the Multiple Binding Sites on Human Serum Albumin. A calorimetric Study,” J Thermal Anal. calorim. 57:36170 (1999); Graziano et al., “Linkage of Proton Binding to the Thermal Unfolding of Sso7d from the Hyperthermophilic Archaebacterium Sulfolobus solfataricus,” Int'l J. Biol. Macromolecules 26:45-53 (1999); Pluschke & Mutz, “Use of Isothermal Titration calorimetry in the Development of Molecularly Defined Vaccines,” J Thermal Anal. calorim. 57:377-88 (1999); Corbell et al., “A Comparison of Biological and calorimetric Analyses of Multivalent Glycodendrimer Ligands for Concanavalin A,” Tetrahedron-Asymmetry 11:95-111 (2000)). The ability of each peptide to downregulate VEGF transcription in cell culture was evaluated by […] quantitative RT-PCR, as described above. The cytotoxicity of each peptide was determined by monitoring cellular growth and population doubling in the presence of individual peptides at 1μM concentration.

experimental animals = settings: cited from earlier work
[4] = system: HIF-1α C-TAD and p300/CBP; settings: literature (Kung et al. 2004); cited from earlier work
p300 [5] = target: T1, p300 (UniProt Q09472 323-423, limits assumed); experiment: isothermal titration calorimetry
T1 construct: also called p300/CBP
T1 sequence (Q09472 323-423 limits assumed): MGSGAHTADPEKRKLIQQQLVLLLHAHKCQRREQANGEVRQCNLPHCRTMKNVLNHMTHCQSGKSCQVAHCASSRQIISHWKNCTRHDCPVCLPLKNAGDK

Helical content (in words) [2]: appears to be unstructured
% Helicity ([2]; 10 mM phosphate buffered saline): 15%
Molecule: CC(=O)NCC(=O)N[C@H](C(=O)N[C@@H](C)C(=O)N[C@@H](C)C(=O)N[C@@H](CC(=O)O)C(=O)N[C@@H](CS)C(=O)N[C@@H](CCC(=O)O)C(=O)N[C@@H](Cc1ccc(O)cc1)C(=O)N[C@@H](CC(N)=O)C(=O)N[C@@H](C)C(=O)N[C@@H](CCCNC(=N)N)C(N)=O)[C@@H](C)O [Compound 25] (Ac-GTAADCEYNAR-NH2)
% Transcription inhibition in cell culture (Luc & RT-PCR) (MDA-MB-231-HRE-Luc cells; luciferase assay and qRT-PCR, 1 μM peptide): 8 ± 3%
Inhibition of VEGF transcription in HeLa cells (in words) [1]: negligible effect
helicity (circular dichroism): 15%

Molecule: CN1C(=O)[C@]2(Cc3cn([C@]45C[C@@]67SS[C@@](CO)(C(=O)N6[C@H]4Nc4ccccc45)N(C)C7=O)c4ccccc34)SS[C@@]1(CO)C(=O)N2C [Compound 26, chetomin, reference compound]
% Transcription inhibition in cell culture (MDA-MB-231-HRE-Luc cells; 200 nM chetomin, qRT-PCR or luciferase, method not given): 50 ± 5%
Inhibition of VEGF transcription in cell culture (in words) (MDA-MB-231-HRE-Luc cells; cell culture): more potent inhibitor of VEGF transcription than HBS helix 22
Kd (p300 [3]): 120 nM
Side effects in experimental animals (experimental animals): induced coagulative necrosis, anemia, and leukocytosis
Inhibition of interaction between HIF-1α C-TAD and p300/CBP [4]: inhibit the interaction between HIF-1α C-TAD and p300/CBP

Molecule: CN1C(=O)[C@@]23C[C@]4([C@]56C[C@@]78SS[C@@](CO)(C(=O)N7[C@H]5Nc5ccccc56)N(C)C8=O)c5ccccc5N[C@@H]4N2C(=O)[C@]1(CO)SS3 [chaetocin 1, chaetocin]
Side effects in experimental animals (experimental animals): induced coagulative necrosis, anemia, and leukocytosis

Kd (p300 [5]): 1350 nM
B1: peptide 23 (AcTSYDCEVNA-NH2) (peptide)
peptide: Ac-TSYDCEVNA-NH2
notes: also called linear peptide 23; unconstrained peptide 23

Kd (p300 [5]): 1220 nM
B2: peptide 24 (AcTAYDCEVNA-NH2) (peptide)
peptide: Ac-TAYDCEVNA-NH2
notes: Unconstrained analog of HBS peptide 20 (alanine in place of serine-797); also called linear peptide 24; unconstrained peptide 24

Kd (p300 [5]): 825 nM
B3: peptide 25 (AcGTAADCEYNAR-NH2) (peptide)
peptide: Ac-GTAADCEYNAR-NH2
notes: Unconstrained analog of HBS helix 22; also called linear control peptide 25; control peptide 25
